Measured values published in US7078223B2, “Process for the preparation of pseudomonic acid a antibiotic by microbiological method” (TEVA Gyógyszergyár Zártkörüen Müködö Részvénytársaság, priority 1999, dated 2006).

How the values were obtained:
[1] = tested on: Bacillus subtilis ATCC 6633; assay: agar diffusion microbial method; format: cell-based; conditions: beef-extract-peptone-glucose agar, pH 6.5, Bacillus subtilis ATCC 6633
Method: The antibacterial activity of the pseudomonic acid antibiotic complex is determined by agar diffusion microbial method. The medium is a beef-extract-peptone-glucose-containing agar, its pH is 6.5 and the test organism is Bacillus subtilis ATCC 6633.

[2] = both for humans and animals; cited from earlier work
[3] = biological target: isoleucine-tRNA synthase enzyme (Escherichia coli, UniProt P00956); conditions: affects the peptide synthesis of pathogen bacteria; cited from earlier work
Sequence of isoleucine-tRNA synthase enzyme (P00956 whole entry): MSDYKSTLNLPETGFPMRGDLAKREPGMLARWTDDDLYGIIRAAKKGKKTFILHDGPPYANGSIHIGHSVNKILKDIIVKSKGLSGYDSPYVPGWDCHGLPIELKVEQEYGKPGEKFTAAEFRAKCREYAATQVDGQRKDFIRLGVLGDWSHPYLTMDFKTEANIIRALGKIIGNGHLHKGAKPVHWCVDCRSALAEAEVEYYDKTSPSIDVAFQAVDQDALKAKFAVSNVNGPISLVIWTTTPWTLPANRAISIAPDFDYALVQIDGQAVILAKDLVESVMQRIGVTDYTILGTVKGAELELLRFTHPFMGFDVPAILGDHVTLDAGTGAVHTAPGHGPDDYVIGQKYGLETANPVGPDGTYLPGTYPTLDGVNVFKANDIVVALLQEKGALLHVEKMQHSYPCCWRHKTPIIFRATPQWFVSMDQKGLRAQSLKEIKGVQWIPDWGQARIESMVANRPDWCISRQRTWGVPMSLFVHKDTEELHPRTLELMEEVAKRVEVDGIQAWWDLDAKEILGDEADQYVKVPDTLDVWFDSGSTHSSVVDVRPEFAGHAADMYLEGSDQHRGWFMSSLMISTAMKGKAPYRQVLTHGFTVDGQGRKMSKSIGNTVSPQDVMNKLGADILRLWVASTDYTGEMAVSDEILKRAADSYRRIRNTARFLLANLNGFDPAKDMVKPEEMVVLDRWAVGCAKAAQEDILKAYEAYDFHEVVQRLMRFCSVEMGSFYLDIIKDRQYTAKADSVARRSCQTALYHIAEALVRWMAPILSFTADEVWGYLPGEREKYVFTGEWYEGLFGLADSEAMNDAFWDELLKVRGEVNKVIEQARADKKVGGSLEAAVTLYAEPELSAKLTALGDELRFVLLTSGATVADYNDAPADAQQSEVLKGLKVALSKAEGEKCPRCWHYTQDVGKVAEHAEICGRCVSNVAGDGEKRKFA

SMILES | specific activity against the test-microorganism relating to the component A [1] | toxicity [2] | inhibition of isoleucine-tRNA synthase enzyme [3]
C/C(=C\C(=O)OCCCCCCCCC(=O)O)CC1OC[C@](O)(C[C@@H]2O[C@H]2[C@@H](C)[C@H](C)O)[C@@H](O)[C@H]1O (stereo partly drawn) [component B, pseudomonic acid B] | considerably weaker |  | 
C/C(=C\C(=O)OCCCCCCCCC(=O)O)CC1OC[C@H](C[C@@H]2O[C@H]2[C@@H](C)[C@H](C)O)[C@@H](O)[C@H]1O (stereo partly drawn) [Pseudomonic acid A, 9-{4[5S(2S,3S-epoxy-5S-hydroxy-4S-methylhexyl)-3R,4R-dihydroxy-tetrahydropyran-2S-yl]-3-methylbut-2(E)-enoyloxy}nonanoic acid] |  | very low toxicity | inhibiting
